# Assay results reported in patent publication US9415084B2, “Treatment of leaky or damaged tight junctions and enhancing extracellular matrix” (Arch Biosurgery, Inc., priority 2007, dated 2016).
# Where “and” joins values, the source holds several entries; their conditions need not be identical. Identical values can stand only once.
# Experiments:
# [1] = tested on: spinal cord; experiment: Hemostasis in a spinal cord injury (T2 hemisection); assay type: in vivo, rat; conditions: adult rats, 20 μl of 1% solution
# Procedure: Under an operating microscope, the second thoracic spinal cord segment (T2) was identified before performing a dorsal laminectomy in anesthetized adult rats. After opening the dura mater, a right hemisection was performed using a ceramic knife. Immediately after the cord hemisection 20 μl of 1% solution of RADA16-I (SEQ ID NO: 60) (NHS-1) was applied to the area of the cut for bleeding control. The controls received a saline treatment. The animals were allowed to survive for up to 8 weeks as part of another experiment. The spinal environment and the brain environment were investigated for similarities or differences. Secondary damage caused by surgery can be reduced by quickly bringing bleeding under control. After laminectomy and removal of the dura, the spinal cord was hemisected at T2, from the dorsal to ventral aspect and treated (N=5) with 20 μl of 1% NHS-1. […] In the saline controls (n=5) it took on average 163 seconds to stop bleeding (FIG. 3a).
# [2] = tested on: femoral artery; experiment: Hemostasis in a high pressure femoral artery wound; assay type: in vivo, rat; conditions: two cases, data not shown
# Procedure: Rats were placed on their backs and the hind limb was extended to expose the medial aspect of the thigh (FIG. 4b). The skin was removed and the overlying muscles were cut to expose the femoral artery and sciatic nerve. The femoral artery was cut to produce a high pressure bleeder. With a 27 gauge needle, 200 μl of 1% RADA16-I (SEQ ID NO: 60) (NHS-1) solution was applied over the site of injury. In two cases powder was applied to the injury site which also worked. (Data not shown and was not included in the analysis). Controls were treated with a combination of saline and pressure with a […]. All animals were sacrificed four hours after the experiment. The femoral artery of 14 adult rats was surgically exposed, transected and then treated with 200 μl of 1% solution of NHS-1 or iced saline and packing. The treated cases (n=10) took about 10 seconds to achieve hemostasis (FIG. 3a). The controls (n=4) continued to bleed more than 6 minutes. The difference in times to achieve complete hemostasis was highly significant (Student t test p<0.0001).
# [3] = tested on: liver; conditions: rat, in vivo
# Procedure: (§1) In the brain and liver of anesthetized adult rats 1% or 2% of NHS-1 was injected immediately after making a cut and the treatment site was sampled. Samples were fixed in a mixture of 2% para-formaldehyde and 2.5% glutaraldehyde in 0.1M PB for 4 hours. The samples were washed in 0.1M PB buffer 10 min×3 at 4° C. and embedded in 2% agar. Agar blocks were post fixed in 1% osmium tetroxide for 2 hrs at 4° C. and then washed in buffer for 10 min×3 at 4° C. The sample blocks were dehydrated in ethanol infiltrated and embedded in pure epon with Lynx EM tissue processor. Ultra-thin 70 nm sections were cut (Reichert-Jung ultra cut) and collected on #200 mesh grids. Sections and grids were stained with uranyl acetate and lead citrate and examined under Philip EM208S transmission electron microscope.
# Still looking for mechanism clues as well as further understanding of the relationship of the NHS-1 blood/tissue interface in both the brain and liver, the treated tissues were examined under the transmission electron microscope (TEM), to determine how the red blood cells (RBCs), platelets, tissue and the ECM interact with the material.
# A 1% NHS-1 solution was applied to a liver wound and immediately harvested the tissue.
# [4] = tested on: brain; conditions: rat, in vivo
# Procedure: as §1
# [5] = tested on: brain, lung, or liver; experiment: Examination of treated animals for thrombi; assay type: in vivo
# [6] = tested on: liver; experiment: Hemostasis in liver 4 mm punch biopsy; assay type: in vivo; conditions: rats allowed to survive for up to 6 months after 3% treatment
# Procedure: In another group of anesthetized adult rats, the liver was exposed and a 4 mm punch biopsy from the ventral aspect through the liver to the dorsal surface of the left liver lobe. The resulting core was removed from the liver and one of three treatments was applied. In one treatment, 200 μl of a 3% NHS-1 solution was applied to the site of injury. In one control saline was applied to the site of injury. In a second control, the injury surface was cauterized. The superficial material was then wiped clear of the injury site. […]
# In the third experiment using adult rats (n=45) 4 mm holes were punched through the left lateral lobe and then the area was treated with 3% NHS-1, saline or heat cautery to bring about hemostasis (FIG. 3b). […] In the heat cautery control group (n=15) cessation of bleeding took more than 60 seconds, inclusive of applying heat to cauterize the inside surface of the punch. […] Using ANOVA there was a significant difference between the 3% NHS-1 treatment and the controls (p<0.0001).
# [7] = tested on: liver; experiment: Hemostasis in liver transverse cut severing a branch of the portal vein; assay type: in vivo; conditions: rat liver transverse cut
# Procedure: Rats were anesthetized and placed on their back and the abdomen was opened exposing the liver (FIG. 4c). The left lobe of the liver was cut using a scalpel in the rostral to caudal direction separating the two halves of the lobe in the sagittal cut. With a 27 gauge needle, 100 μl of 1% or 2%, of RADA16-I (SEQ ID NO: 60) (NHS-1), RADA-12 (NHS-2), or EAK-16 (TM-3) solution was applied to the site of injury. Livers of the controls were treated with saline or cauterized. Cauterization was performed using a thermal cautery device and was applied to entire surface of the injury. In another group of adult rats the same procedure was followed for the liver, which was cut transversely (FIG. 4d). With a 27 gauge needle, 400 μl of 1%, 2%, 3%, or 4% of NHS-1, or TM-3 solution was applied to the site of injury.
# In the second experiment a major branch of the portal vein was severed while making a transverse cut in the left lobe to test NHS-1 in a high flow rate environment. Four concentrations of NHS-1 were tested (n=12) along with (n=4) control animals. 400 μl of 4% concentration NHS-1 was applied and bleeding stopped in 11 seconds. The test was successfully duplicated with 400 μl of both 3% and 2% NHS-1 solution; bleeding ceased in 10 and 10.3 seconds, respectively (FIG. 3d). When 400 μl of 1% NHS-1 was applied, bleeding continued for more than 60 seconds (FIG. 3d). The controls, however, bled for over 6 minutes. […] A significant difference was found between the NHS-1 treated and control groups using ANOVA.
# The increased blood flow from the portal vein after making a transverse liver cut allowed the performance of another dose response experiment where various concentrations of NHS-1 (1% to 4%) and TM-3 (1% to 3%) could be compared with controls (FIG. 3d). All concentrations of NHS-1 were effective; however the higher blood pressure and flow rate after the transverse liver cut required a concentration of 2% or higher of NHS-1 to stop bleeding in less than 15 seconds.
substance,measurement,setting,value
n-RADARADARADARADA-c [NHS-1],time to hemostasis,[1],7.6 s
same,hemostasis with powder applied to the injury site,[2],also worked
same,lysing of RBCs at the interface,[3],no evidence of lysing
same,platelet aggregation at the blood/NHS-1 interface,[3],no evidence of platelet aggregation
same,lysing of RBCs at the edges of the assembled material,[4],no evidence of lysing
same,platelet aggregation in the assembled material,[4],no evidence of platelet aggregation
same,"thrombi in the brain, lung, or liver",[5],no evidence of thrombi
same,effect on the tissues in surviving animals,[6],no detrimental effect on the tissues
same,hemostasis after removing the excess assembled material,"[7]; 2%, 3% and 4% concentration",complete hemostasis was maintained
same,time to hemostasis,[7]; 400 μl of 2% solution,10.3 s and 10.3 ± 0.5 s
same,time to hemostasis,[7]; 400 μl of 3% solution,10 s and 10.0 ± 1.0 s
same,time to hemostasis,[7]; 400 μl of 4% solution,11 s and 11.0 ± 1.0 s
same,concentration required for complete hemostasis in less than 15 seconds,[7]; higher blood pressure/flow rate,≥ 2%
same,hemostatic effectiveness over the concentrations tested,"[7]; NHS-1 1% to 4%, TM-3 1% to 3%",effective
